Laboratory results taken from the supplement of paper PMC7840683.
Where a name gives a salt, the structure may show the parent alone.

Test system: HepaRG
Assay: LDH release cytotoxicity, % of total lysis control; higher = more cytotoxic
Settings: 48 h
Summary of the method: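 Single-lot HepaRG cells on collagen I-coated 96-well plates were exposed for 48 h in duplicate, in serum-free induction medium with 0.5% DMSO, to eight-point half-log series (test chemicals top 100 µM). Total lysis wells received 0.1% Triton X, and LDH leakage into 50 µL spent medium was read as resorufin fluorescence (CytoTox-ONE, Tecan Safire). Percent cytotoxicity was normalized to on-plate vehicle and total lysis controls and averaged over the duplicates.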

Oc1ccccc1O [1,2-Benzenediol]
Settings	LDH release cytotoxicity [%]
0.03162 µM	-1.86
0.1 µM	-1.713
0.3162278 µM	-1.94
1 µM	-2.41
3.16228 µM	-2.9
10 µM	-2.31
31.6228 µM	-1.42
100 µM	-0.0267

CC(C)(C)c1cc(O)ccc1O [tert-Butylhydroquinone]
Settings	LDH release cytotoxicity [%]
0.03162 µM	-1.59
0.1 µM	-1.78
0.3162278 µM	-2.28
1 µM	-2.78
3.16228 µM	-3.35
10 µM	-3.59
31.6228 µM	-4.19
100 µM	-3.84

CN(C)C(=O)C1(N2CCCCC2)CCN(CCC2(c3ccc(Cl)c(Cl)c3)CN(C(=O)c3ccccc3)CCO2)CC1 (centres undefined)
Settings	LDH release cytotoxicity [%]
0.02988 µM	-0.742
0.0945 µM	-0.252
0.298835 µM	-0.7
0.945 µM	-0.736
2.98835 µM	-0.21
9.45 µM	0.674
29.8835 µM	69.1
94.5 µM	85.4

CCc1nc(N)nc(N)c1-c1ccc(Cl)cc1 [Pyrimethamine]
Settings	LDH release cytotoxicity [%]
0.03162 µM	-0.622
0.1 µM	-0.806
0.3162278 µM	0.238
1 µM	0.679
3.16228 µM	1.89
10 µM	4.04
31.6228 µM	2.08
100 µM	14.2

NCC1(Cc2noc(=O)[nH]2)CCCCC1
Settings	LDH release cytotoxicity [%]
0.03162 µM	-1.45
0.1 µM	-1.66
0.3162278 µM	-1.14
1 µM	-1.29
3.16228 µM	-1.26
10 µM	-1.72
31.6228 µM	-2.07
100 µM	17.4

CC[C@H](C)[C@@H](C(=O)O)n1sc2ccccc2c1=O
Settings	LDH release cytotoxicity [%]
0.03162 µM	-0.834
0.1 µM	-1.623
0.3162278 µM	-0.553
1 µM	-1.34
3.16228 µM	-1.12
10 µM	-0.759
31.6228 µM	-1.34
100 µM	0.0312

Cn1c(=O)cc(Oc2ccc(F)cc2F)c2cnc(NCC(C)(C)O)nc21
Settings	LDH release cytotoxicity [%]
0.03162 µM	-1.61
0.1 µM	-1.64
0.3162278 µM	-0.855
1 µM	-0.86
3.16228 µM	-1.12
10 µM	-1.19
31.6228 µM	-0.929
100 µM	-1.1

CNC(=O)N(C)c1nnc(C(C)(C)C)s1 [Tebuthiuron]
Settings	LDH release cytotoxicity [%]
0.03162 µM	-1.29
0.1 µM	-1.38
0.3162278 µM	-1.87
1 µM	-1.53
3.16228 µM	-0.935
10 µM	-1.24
31.6228 µM	-1.15
100 µM	0.223

CCCCOC(=O)c1ccc(O)cc1 [Butylparaben]
Settings	LDH release cytotoxicity [%]
0.03162 µM	-1.57
0.1 µM	-1.1
0.3162278 µM	-1.42
1 µM	-2.15
3.16228 µM	-2.51
10 µM	-2.14
31.6228 µM	-2.11
100 µM	-0.69

C#CCN1C(=O)COc2cc(F)c(N3C(=O)C4=C(CCCC4)C3=O)cc21 [Flumioxazin]
Settings	LDH release cytotoxicity [%]
0.03162 µM	-0.355
0.1 µM	-0.895
0.3162278 µM	-0.721
1 µM	-1.33
3.16228 µM	-0.964
10 µM	-1.1
31.6228 µM	-0.837
100 µM	0.763

S=C1NCCN1 [Ethylene thiourea]
Settings	LDH release cytotoxicity [%]
0.03162 µM	-0.742
0.1 µM	-0.402
0.3162278 µM	-0.462
1 µM	-0.602
3.16228 µM	-0.544
10 µM	0.0401
31.6228 µM	0.537
100 µM	0.155

CCOCCO [2-Ethoxyethanol]
Settings	LDH release cytotoxicity [%]
0.03162 µM	-0.38
0.1 µM	0.655
0.3162278 µM	-0.174
1 µM	0.482
3.16228 µM	0.0895
10 µM	0.267
31.6228 µM	0.257
100 µM	1.46

ClC1C(Cl)C(Cl)C(Cl)C(Cl)C1Cl (stereo not drawn) [beta-Hexachlorocyclohexane]
Settings	LDH release cytotoxicity [%]
0.03162 µM	-4.28
0.1 µM	-4.78
0.3162278 µM	-4.47
1 µM	-4.51
3.16228 µM	-3.52
10 µM	-2.88
31.6228 µM	-2.3
100 µM	-0.552

CCN(CC)CCNc1ccc(CNC=O)c2sc3ccc(OC)cc3c(=O)c12
Settings	LDH release cytotoxicity [%]
0.03162 µM	-0.844
0.1 µM	-1.66
0.3162278 µM	-0.986
1 µM	-1.41
3.16228 µM	1.37
10 µM	2.31
31.6228 µM	5.144
100 µM	81.1

CCCCCCCCCCCCc1ccc(S(=O)(=O)O)cc1 [Dodecylbenzenesulfonic acid]
Settings	LDH release cytotoxicity [%]
0.031623 µM	-1.05
0.1 µM	-1.4
0.316228 µM	-2.17
1 µM	-3.27
3.16228 µM	-2.52
10 µM	-2.56
31.6228 µM	-1.64
100 µM	65.65

CC(=O)C(C)=CC1C(C)=CCCC1(C)C (stereo not drawn) [alpha-Isomethylionone]
Settings	LDH release cytotoxicity [%]
0.03162 µM	-0.906
0.1 µM	-1.92
0.3162278 µM	-1.73
1 µM	-1.69
3.16228 µM	-1.11
10 µM	-1.8
31.6228 µM	-0.46
100 µM	0.422

O=[N+]([O-])c1ccc(O)cc1 [4-Nitrophenol]
Settings	LDH release cytotoxicity [%]
0.03162 µM	-0.152
0.1 µM	-1.48
0.3162278 µM	-1.18
1 µM	-1.8
3.16228 µM	-0.936
10 µM	-1.26
31.6228 µM	-0.409
100 µM	-0.082

CC1(C)CON(Cc2ccccc2Cl)C1=O [Clomazone]
Settings	LDH release cytotoxicity [%]
0.03162 µM	-5.32
0.1 µM	-6.75
0.3162278 µM	-6.22
1 µM	-6.24
3.16228 µM	-6.33
10 µM	-5.74
31.6228 µM	-5.91
100 µM	-4.53

CC(C)CCCCCCOC(=O)c1ccc(C(=O)OCCCCCCC(C)C)c(C(=O)OCCCCCCC(C)C)c1 [Triisononyl trimellitate]
Settings	LDH release cytotoxicity [%]
0.031623 µM	-0.391
0.1 µM	-0.474
0.316228 µM	-1.59
1 µM	-2.21
3.16228 µM	-2.67
10 µM	-1.83
31.6228 µM	-0.993
100 µM	0.476

O=C(O)CCN(C1(C(=O)NO)CCCC1)S(=O)(=O)c1ccc(Oc2ccc(F)cc2)cc1
Settings	LDH release cytotoxicity [%]
0.03162 µM	-0.305
0.1 µM	-1.01
0.3162278 µM	-0.589
1 µM	-0.176
3.16228 µM	-0.0966
10 µM	0.986
31.6228 µM	0.193
100 µM	1.19

ClC1=C(Cl)C2(Cl)C3C4OC4C(Cl)C3C1(Cl)C2(Cl)Cl (centres undefined) [Heptachlor epoxide B]
Settings	LDH release cytotoxicity [%]
0.03162 µM	-4.87
0.1 µM	-4.16
0.3162278 µM	-4.44
1 µM	-3.99
3.16228 µM	-3.88
10 µM	-3.4
31.6228 µM	-3.14
100 µM	-0.787

Cc1ccc(O)c(C)c1 [2,4-Dimethylphenol]
Settings	LDH release cytotoxicity [%]
0.03162 µM	-0.236
0.1 µM	-1.06
0.3162278 µM	-0.554
1 µM	-0.084
3.16228 µM	0.0582
10 µM	-0.172
31.6228 µM	-0.59
100 µM	-0.251

CC12CCC3c4ccc(O)cc4CCC3C1CCC2O (stereo not drawn) [17beta-Estradiol]
Settings	LDH release cytotoxicity [%]
0.01581 µM	-0.962
0.05 µM	-1.17
0.1581139 µM	-1.03
0.5 µM	-1.37
1.5811388 µM	-1.1
5 µM	-0.844
15.8114 µM	-0.113
50 µM	6.2

CCCOc1sc(C(=O)N2CCC(c3cc(CN)ccc3F)CC2)c(C)c1Br [AVE8923]
Settings	LDH release cytotoxicity [%]
0.002846 µM	0.846
0.009 µM	-1.04
0.02846 µM	-1.76
0.09 µM	-1.75
0.284605 µM	-1.48
0.9 µM	-1.21
2.84605 µM	-0.426
9 µM	-0.0454

COc1nc(NC(C)C)nc(NC(C)C)n1 [Prometon]
Settings	LDH release cytotoxicity [%]
0.03162 µM	-0.0909
0.1 µM	-0.994
0.3162278 µM	-1.1
1 µM	-1.18
3.16228 µM	-1.26
10 µM	-1.06
31.6228 µM	-0.722
100 µM	-0.643

Nc1cc(Cl)cc(C(=O)O)c1Cl [Chloramben]
Settings	LDH release cytotoxicity [%]
0.03162 µM	0.283
0.1 µM	-1.57
0.3162278 µM	-0.351
1 µM	-0.882
3.16228 µM	-1.46
10 µM	-0.217
31.6228 µM	-0.618
100 µM	0.291

O=C(NS(=O)(=O)C=Cc1ccccc1)c1ccc(F)cc1Cl
Settings	LDH release cytotoxicity [%]
0.03162 µM	-0.138
0.1 µM	-1.32
0.3162278 µM	-0.79
1 µM	-2.23
3.16228 µM	-1.4
10 µM	-0.621
31.6228 µM	-0.552
100 µM	1.91

N=C1C=NN(c2ccccc2)C(=O)C1Cl (centres undefined) [Chloridazon]
Settings	LDH release cytotoxicity [%]
0.03162 µM	-1.49
0.1 µM	-1.35
0.3162278 µM	-0.939
1 µM	-1.3
3.16228 µM	-0.697
10 µM	-0.282
31.6228 µM	-0.579
100 µM	2.76

CCOCCOC(C)=O [Ethylene glycol monoethyl ether acetate]
Settings	LDH release cytotoxicity [%]
0.03162 µM	-1.19
0.1 µM	-0.486
0.3162278 µM	0.156
1 µM	0.488
3.16228 µM	0.0494
10 µM	0.917
31.6228 µM	0.221
100 µM	1.51

Nc1ccc(Cc2ccc(N)cc2)cc1 [4,4'-Diaminobiphenyl methane]
Settings	LDH release cytotoxicity [%]
0.03162 µM	-0.659
0.1 µM	-2.27
0.3162278 µM	-2.24
1 µM	-2.78
3.16228 µM	-2.52
10 µM	-2.46
31.6228 µM	-1.8
100 µM	0.228

Cn1cnc([N+](=O)[O-])c1Sc1ncnc2nc[nH]c12 [Azathioprine]
Settings	LDH release cytotoxicity [%]
0.0314647 µM	-0.881
0.0995 µM	-1.48
0.3146466 µM	-1.64
0.995 µM	-0.793
3.14647 µM	1.06
9.95 µM	4.17
31.4647 µM	6.78
99.5 µM	8.21

CN1CCCC1=O [N-Methyl-2-pyrrolidone]
Settings	LDH release cytotoxicity [%]
0.03162 µM	-2.92
0.1 µM	-3.16
0.3162278 µM	-2.9
1 µM	-2.75
3.16228 µM	-1.74
10 µM	-1.93
31.6228 µM	-2.93
100 µM	7.04

CCCCCCCCCCO [1-Decanol]
Settings	LDH release cytotoxicity [%]
0.03162 µM	-1.47
0.1 µM	-2.45
0.3162278 µM	-1.67
1 µM	-2.76
3.16228 µM	-1.79
10 µM	-1.21
31.6228 µM	-0.773
100 µM	0.757

CCCCCCCCCCCCOS(=O)(=O)O [Sodium dodecyl sulfate]
Settings	LDH release cytotoxicity [%]
0.03162 µM	-0.308
0.1 µM	-0.693
0.3162278 µM	-1.14
1 µM	-0.62
3.16228 µM	-1.89
10 µM	-1.05
31.6228 µM	0.0441
100 µM	10.1

CC(C)(C)OOC(C)(C)CCC(C)(C)OOC(C)(C)C [2,5-Dimethyl-2,5-di-(tert-butylperoxy)hexane]
Settings	LDH release cytotoxicity [%]
0.03162 µM	-1.07
0.1 µM	-0.939
0.3162278 µM	-0.841
1 µM	-0.347
3.16228 µM	-0.34
10 µM	-0.223
31.6228 µM	1.22
100 µM	2.2

C=CCc1ccc2c(c1)OCO2 [Safrole]
Settings	LDH release cytotoxicity [%]
0.03162 µM	-1.32
0.1 µM	-2.757
0.3162278 µM	-3.53
1 µM	-4.07
3.16228 µM	-3.36
10 µM	-2.27
31.6228 µM	-1.93
100 µM	1.79

CC(COCC(C)OC(=O)c1ccccc1)OC(=O)c1ccccc1 (centres undefined) [Di(propylene glycol) dibenzoate]
Settings	LDH release cytotoxicity [%]
0.03162 µM	-0.851
0.1 µM	-1.49
0.3162278 µM	-1.08
1 µM	-1.01
3.16228 µM	-1.58
10 µM	-1.58
31.6228 µM	-1.03
100 µM	0.42

CCCCC(CC)COC(=O)c1ccccc1C(=O)OCC(CC)CCCC (centres undefined) [Di(2-ethylhexyl) phthalate]
Settings	LDH release cytotoxicity [%]
0.01581 µM	-1.27
0.05 µM	-1.74
0.1581139 µM	-1.47
0.5 µM	-0.91
1.5811388 µM	-1.48
5 µM	-1.76
15.8114 µM	-0.407
50 µM	-0.778
